Earlier results on two substances are cited in US20190250088A1, “Methods and Apparatus for Predicting and Confirming Drug-Induced Thrombocytopenia Through Particle Detection with Dynamic Light Scattering” (LightIntegra Technology Inc., priority 2018, published 2019).

For this data set the following is noted: patients recently exposed to heparin; background statement.

In the case of “unfractionated heparin [unfractionated heparin (UFH)]”, the “HIT occurs in patients receiving the drug (incidence of heparin-induced thrombocytopenia)” value was “up to 5%”.
In the case of “low molecular weight heparin [low molecular weight heparin (LMWH)]”, the “HIT occurs in patients receiving the drug (incidence of heparin-induced thrombocytopenia)” value is below 1%.
